According to patent publication US20190358181A1, “METHODS FOR AUTISM SPECTRUM DISORDER PHARMACOTHERAPY” (priority 2017, published 2019):
Where two headings read alike, the source gives them in different places.

Assay: Suramin plasma pharmacokinetics by LC-MS/MS, two compartment population PK model, pediatric patients
Assay type: in vivo, human
Conditions: for concentration at 1 h: read-out: 1-Hour Plasma Conc; for concentration at 45 days: read-out: 45-Day Plasma Conc; for concentration at 2 days: read-out: 2-Day Plasma Conc
Description: For the test dose, 50 mg of suramin hexasodium (Bayer Pharmaceuticals, Inc.) in 5 mL of saline (experimental arm, 5 patients), or 5 mL of saline only (control arm, 5 patients) were given by slow intravenous (IV) push over 3 minutes, followed by a 10 mL flush of saline. One hour after the test dose, vital signs were repeated and a single infusion of either suramin (20 mg/kg, minus the 50 mg test dose, in 50 mL, up to a maximum of 1 gram) or saline (50 mL IV) was given over 30 minutes, followed by a 10 mL flush of saline.
Suramin pharmacokinetics was assessed by serum isolation at the 4 time points immediately before and after the infusion. […] Unexpected and adverse events were recorded as they occurred and graded in severity according to the National Cancer Institute Common Terminology Criteria for Adverse Events v4.03 (CTCAE) scale. Additional pharmacovigilence monitoring included daily scripted phone calls in the first week, then 4 weekly calls until the exit examinations at 6 weeks.
Heparinized plasma, 90 μl was prepared for LC-MS/MS analysis. Ten (10) μl of 50 μM stock of trypan blue was added to achieve an internal standard concentration of 5μM. This was incubated at room temperature for 10 min to permit metabolite interaction with binding proteins, then extracted with 4 volumes (400 μl) of pre-chilled methanol-acetonitrile (50:50) to produce a final concentration of 40:40:20 (methanol:acetonitrile:H2O), and precipitated on ice for 10 minutes. The samples were deproteinated and macromolecules removed by precipitation on crushed ice for 10 min.
The mixture was centrifuged at 16,000g for 10 min at 4° C. and the supernatant was transferred to a new tube and kept at −80° C. for further LC-MS/MS analysis.
Suramin was detected in the prepared samples on an AB SCIEX QTRAP 5500 triple quadrupole mass spectrometer equipped with a Turbo V electrospray ionization (ESI) source, Shimadzu LC-20A UHPLC system, and a PAL CTC autosampler. […] The mobile phase A was water with 20 mM ammonium acetate (NH4OAC) (pH 7) and mobile phase B was methanol with 20 mM NH4OAC (pH 7). […] The flow rate was 400 μl/min. All the samples were kept at 4° C. during analysis. Suramin and trypan blue were detected using MRM scanning mode with the dwell time of 180 ms. […] Absolute concentrations of suramin were determined using a standard curve prepared in plasma to account for matrix effects, and the peak area ratio of suramin to the internal standard trypan blue. […] The ESI source parameters were set as follows: source temperature 500° C.; curtain gas 30; ion source gas 1, 35; ion source gas 2 35; spray voltage −4500 V. Analyst v1.6 was used for data acquisition and analysis.
The small number of PK samples per subject prevented a standard, non-compartmental analysis in individual subjects. The suramin drug concentrations were analyzed using a population PK approach with post-hoc empiric Bayesian estimate of PK parameters in individual subjects. The PK data were fit to a two compartment model using the computer program NONMEM (ICON, Dublin, Ireland). PK parameters were scaled allometrically with volume terms scaled to linear body weight (kg1.0) and clearance terms scaled to weight (kg0.75). Scaled adult suramin parameters of compartmental volumes of distribution and clearance were used as initial parameter estimates and between subject variability only estimated for clearance (CL) and the peripheral volume of distribution (Vd).

[1] = human, plasma, iv, 20 mg/kg, Mean of 5 subjects, 20 mg/kg (558 mg/m^2) IV
[2] = human, plasma, iv, 460 mg, ID 007, 460 mg (529 mg/m^2) IV
[3] = human, plasma, iv, 460 mg, ID 012, 460 mg (529 mg/m^2) IV
[4] = human, plasma, iv, 500 mg, ID 005, 500 mg (526 mg/m^2) IV
[5] = human, plasma, iv, 680 mg, ID 001, 680 mg (591 mg/m^2) IV
[6] = human, plasma, iv, 1000 mg, ID 014, 1000 mg (613 mg/m^2) IV
[7] = human, plasma, Mean of 5 subjects, 20 mg/kg (558 mg/m^2) IV

## Cc1ccc(C(=O)Nc2ccc(S(=O)(=O)O)c3cc(S(=O)(=O)O)cc(S(=O)(=O)O)c23)cc1NC(=O)c1cccc(NC(=O)Nc2cccc(C(=O)Nc3cc(C(=O)Nc4ccc(S(=O)(=O)O)c5cc(S(=O)(=O)O)cc(S(=O)(=O)O)c45)ccc3C)c2)c1 [Suramin, suramin]
20 mg/kg IV
  clearance: 0.056±0.011 L/hr/m2
  steady-state volume of distribution: 22.7±2.6 L/m2
Before Day 2, all subjects
  suramin levels: below 100 μM
Between 2 days and 5-6 weeks following the dose
  plasma concentrations maintained: 1.5 to 15 µM
human, plasma, iv, 20 mg/kg, 20 mg/kg IV, read-out: alpha (distribution) phase half-life (converted)
  half-life: 0.308 ± 0.0229 days
[1]
  concentration at 1 h: 104 µM
  concentration at 45 days: 1.54 µM
human, plasma, iv, 20 mg/kg, Mean of 5 subjects, 20 mg/kg (558 mg/m^2) IV, read-out: Plasma Half-Life (terminal elimination phase half-life) (converted)
  half-life: 14.7 days
[2]
  concentration at 1 h: 87.9 µM
  concentration at 2 days: 11.9 µM
  concentration at 45 days: 1.67 µM
[3]
  concentration at 1 h: 119 µM
  concentration at 2 days: 13.8 µM
  concentration at 45 days: 2.28 µM
human, plasma, iv, 460 mg, ID 012, 460 mg (529 mg/m^2) IV, read-out: Plasma Half-Life (converted)
  half-life: 16.5 days
[4]
  concentration at 1 h: 102 µM
  concentration at 2 days: 10.6 µM
  concentration at 45 days: 1.76 µM
human, plasma, iv, 500 mg, ID 005, 500 mg (526 mg/m^2) IV, read-out: Plasma Half-Life (converted)
  half-life: 15 days
[5]
  concentration at 1 h: 101 µM
  concentration at 2 days: 13.2 µM
  concentration at 45 days: 0.96 µM
human, plasma, iv, 680 mg, ID 001, 680 mg (591 mg/m^2) IV, read-out: Plasma Half-Life (converted)
  half-life: 12.6 days
[6]
  concentration at 1 h: 111 µM
  concentration at 2 days: 10.6 µM
  concentration at 45 days: 1.04 µM
human, plasma, iv, 1000 mg, ID 014, 1000 mg (613 mg/m^2) IV, read-out: Plasma Half-Life (converted)
  half-life: 14.9 days
human, plasma, 20 mg/kg IV, read-out: clearance (converted)
  clearance: 1.95 mL/h/kg
human, plasma, 20 mg/kg IV, read-out: steady-state volume of distribution
  Vd: 0.83 ± 0.014 L/kg
[7]
  concentration at 1 h: 104 ± 11.6 µM
  concentration at 2 days: 12 ± 1.5 µM
